Laboratory results published in the supplement of paper PMC11208160.

Test: recombinant UMI read abundance after kanamycin selection (control-corrected) (log10(CPM+1)); higher = more efficient recombination; extreme values may be limits of the assay; sequences stand for … in AGTGCAGAGAAAATCGGCCAGTTTTCTCTGCCTGCAGTCCGCATGCCGTGGGACCCCTTGGGTTCTAACCTGTTGCCTAGATTTATGCAGCGGACTGCCTTTCTCCCAAAGTGATAAACCGG…AGGTTGGTTTCACT; site = the 11-nt donor
Method in brief: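 Counts of recombinant UMIs were reported as log10(CPM+1). Before that, they were converted to CPM, averaged over replicates and scaled using control-derived factors. They came from PCR across the donor–target junction after Escherichia coli carrying the pair library and target plasmid was plated on IPTG (0.07 mM) plus kanamycin, or unselected, in two replicates each.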
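Further: IS621 bridge recombinase in Escherichia coli cells against a fixed T5 target plasmid.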

Sequence	recombinant UMI read abundance (log10)
TCCTGTTCATGGACCGGTTTTCCCGGTAATCCGTATTTGTC (site TCCTGTTCTGA)	0
TAGGTTGCATGGACCGGTTTTCCCGGTAATCCGTATTTGGC (site TAGGTTGCTGC)	2.62
GTAAATCCATGGACCGGTTTTCCCGGTAATCCGTATTTGGG (site GTAAATCCTCC)	0.325
TAAGTCACATGGACCGGTTTTCCCGGTAATCCGTATTTGGG (site CAAGTCACTCC)	0.0119
GGGCAACCATGGACCGGTTTTCCCGGTAATCCGTATTTGCG (site GGGCAACCTCG)	0
GCGAAGTCATGGACCGGTTTTCCCGGTAATCCGTATTTGGG (site GCGAAGACTCC)	0.283
TAGGTATCATGGACCGGTTTTCCCGGTAATCCGTATTTGCG (site TAGGCATCTCG)	1.3
GAGCACACATGGACCGGTTTTCCCGGTAATCCGTATTTGAT (site GAGCGCACTAT)	0.00425
TAAGGTGCATGGACCGGTTTTCCCGGTAATCCGTATTTGTA (site TAAGGTGCTTA)	2.58
CGTCGTACATGGACCGGTTTTCCCGGTAATCCGTATTTGCT (site CGCCGTACTAG)	1.22
AATGTGTCATGGACCGGTTTTCCCGGTAATCCGTATTTGAC (site AACGTGTCTGT)	0
AAGCTGTCATGGACCGGTTTTCCCGGTAATCCGTATTTGAT (site AAGCTGTCTAT)	0.353
CCAGTATCATGGACCGGTTTTCCCGGTAATCCGTATTTGAA (site CTAGTATCTGT)	0
TCGGTTACATGGACCGGTTTTCCCGGTAATCCGTATTTGTT (site TCGGTTACTAA)	0.835
CGGGAGTCATGGACCGGTTTTCCCGGTAATCCGTATTTGAC (site CGGGAGTCTGG)	1.25
CCCTTCTCATGGACCGGTTTTCCCGGTAATCCGTATTTGGG (site CTCTTCTCTCC)	0.0147
AGGTTCCCATGGACCGGTTTTCCCGGTAATCCGTATTTGTC (site AGGTTCCCTGA)	0
GAAGATTCATGGACCGGTTTTCCCGGTAATCCGTATTTGTT (site CAAGATTCTAA)	1.81
TAAGGTCCATGGACCGGTTTTCCCGGTAATCCGTATTTGTA (site TAACGTCCTTA)	0.0087

Sequence	recombinant UMI read abundance (log10)
GAGGAATCATGGACCGGTTTTCCCGGTAATCCGTATTTGCG (site CAGGAATCTCG)	2.04
CATTTGCCATGGACCGGTTTTCCCGGTAATCCGTATTTGTG (site CATTTGCCTCA)	0.302
TGTAGCTCATGGACCGGTTTTCCCGGTAATCCGTATTTGGG (site TGTAGCTCTCC)	0.0269
AGGAGGCCATGGACCGGTTTTCCCGGTAATCCGTATTTGCA (site AGGAAGACTTG)	0
TGGCCGGCATGGACCGGTTTTCCCGGTAATCCGTATTTGCC (site TGGCCGGCTGG)	1.05
TATTATGCATGGACCGGTTTTCCCGGTAATCCGTATTTGGA (site TATTATGCTTC)	0.177
GGGACTACATGGACCGGTTTTCCCGGTAATCCGTATTTGCA (site GGGACTACTTG)	1.67
CGATCATCATGGACCGGTTTTCCCGGTAATCCGTATTTGAT (site CGATCATCTAG)	0
GAGTAGTCATGGACCGGTTTTCCCGGTAATCCGTATTTGGA (site GAGTAGTCTTC)	2.7
CAAGCGGCATGGACCGGTTTTCCCGGTAATCCGTATTTGTG (site CAAGCGGCTCA)	0.904
ACCAGCCCATGGACCGGTTTTCCCGGTAATCCGTATTTGCT (site ACCAGCCCTAG)	0.0684
AATGTAACATGGACCGGTTTTCCCGGTAATCCGTATTTGCT (site AATGTAACTAG)	2.26
TTTGCCGCATGGACCGGTTTTCCCGGTAATCCGTATTTGCT (site TTTGCAGCTAG)	0.0102
CCCATATCATGGACCGGTTTTCCCGGTAATCCGTATTTGTC (site CCCATATCTAA)	0.00469
TGCCTAGCATGGACCGGTTTTCCCGGTAATCCGTATTTGTT (site TGCCTAGCTAA)	0.0135
TAGGCATCATGGACCGGTTTTCCCGGTAATCCGTATTTGCG (site TAGGAATCTCG)	0
GTTCGAGCATGGACCGGTTTTCCCGGTAATCCGTATTTGCA (site GTTCGTGCTTG)	0.477
GTAGTATCATGGACCGGTTTTCCCGGTAATCCGTATTTGAC (site TTAGTATCTGT)	2.29
CTTGAGACATGGACCGGTTTTCCCGGTAATCCGTATTTGGT (site ATTGAGACTAC)	0.141

Sequence	recombinant UMI read abundance (log10)
CTGCAAACATGGACCGGTTTTCCCGGTAATCCGTATTTGCA (site CTGCAAACTTG)	0.915
GTAGTCGCATGGACCGGTTTTCCCGGTAATCCGTATTTGCG (site GTAGACGCTCG)	0.714
ACAGTATCATGGACCGGTTTTCCCGGTAATCCGTATTTGCA (site ACCGAATCTTG)	0
AACCACTCATGGACCGGTTTTCCCGGTAATCCGTATTTGCC (site AACCACTCTGG)	3.01
GGGTGTTCATGGACCGGTTTTCCCGGTAATCCGTATTTGTT (site GGGTGTTCTAA)	1.1
AATGTAACATGGACCGGTTTTCCCGGTAATCCGTATTTGCT (site AATGTAACTAC)	0.00758
GGCAATCCATGGACCGGTTTTCCCGGTAATCCGTATTTGAA (site GCCAATCCTTT)	0
ATCTAAACATGGACCGGTTTTCCCGGTAATCCGTATTTGAC (site ATCTATACTGT)	0.00453
AAGTAGGCATGGACCGGTTTTCCCGGTAATCCGTATTTGGC (site ATGTAGGCTGC)	1.41
GTGCAAGCATGGACCGGTTTTCCCGGTAATCCGTATTTGGT (site GTGCATGCTAC)	0.222
CTACTAACATGGACCGGTTTTCCCGGTAATCCGTATTTGGA (site CTACTAGCTTC)	0.689
TCGTTTACATGGACCGGTTTTCCCGGTAATCCGTATTTGCT (site CCGTTTACTAG)	0
CGGCAACCATGGACCGGTTTTCCCGGTAATCCGTATTTGAT (site CGGTAACCTAT)	0
CTTCTCTCATGGACCGGTTTTCCCGGTAATCCGTATTTGCA (site CTTCTCTCTTA)	0.866
GTTCGAGCATGGACCGGTTTTCCCGGTAATCCGTATTTGCC (site GTTCGAGCTCG)	0.00775
TACAGTACATGGACCGGTTTTCCCGGTAATCCGTATTTGGT (site TACAGTACTAC)	0.439
ACAGTATCATGGACCGGTTTTCCCGGTAATCCGTATTTGCA (site ACAAAATCTTG)	0.724
GAAGATTCATGGACCGGTTTTCCCGGTAATCCGTATTTGTT (site GAAGATTCTAA)	2.86
GTTGTTGCATGGACCGGTTTTCCCGGTAATCCGTATTTGGT (site GTTGTTACTAC)	0.375
